Data on one compound can be found in patent EP0955045A1, “DRUGS FOR IMPROVING OCULAR CIRCULATION DISORDERS” (Senju Pharmaceutical Co., Ltd., priority 1996, dated 1998).

The subject of data set [1] is blood flow of optic nerve head induced by intravitreous injection of ET-1. Kind of data set: Effect of topical instillation on the ET-1-induced decrease in optic nerve head blood flow (hydrogen clearance method). It is filed as in vivo, Male Dutch pigmented rabbits. The conditions noted are these: versus physiological saline in contralateral eye; 30 to 120 minutes after ET-1 injection; paired t-test; n=6. As for the experimental part: The effect of topically applied amosulalol hydrochloride on the blood flow of optic nerve head induced by intravitreous injection of ET-1 in pigmented rabbits.
Male Dutch pigmented rabbits weighing about 2 kg were purchased from Fukusaki Rabbit Farmers Association and used after confirmation of absence of ocular abnormality. The rabbits were housed at 23 ±3 °C and 55±10% R.H. and put on a ration of 100 g/day of rabbit chow (Labo R Stock, Nippon Nosan Kogyo K.K.) with free access to tap water.
As the investigational drug, the anti-ocular circulatory disturbance composition containing 0.5% (w/v) of amosulalol hydrochloride as obtained in Example 7 was used. As a control drug, physiological saline solution was used. […]
The rabbit was placed in a retainer for rabbits and, after instillation of Mydrin P (Registered Trademark, Santen Pharmaceutical) for mydriasis and observation of the optic nerve head for any abnormality, general anesthesia was introduced by injecting urethane (dissolved in distilled water to 20% concentration), 1 g/kg, subcutaneously in the abdominal region. […] The half-life (T1/2) was determined from the line and the blood flow was calculated by means of Kety's theoretical formula (Journal of Clinical Investigate, 27, 476-483, 1948). […]

A further data set deals with mice. As to conditions: cited from earlier work.

Molecules are shown by their SMILES. Structures can show the parent of a compound that is named as a salt. Where two headings read alike, the source gives them in different places.

On to `COc1ccccc1OCCNCC(O)c1ccc(C)c(S(N)(=O)=O)c1` (stereo not drawn) [amosulalol hydrochloride, 5-{1-hydroxy-2-[2-(2-methoxyphenoxy)ethylamino]ethyl}-2-methylbenzenesulfonamide], for which the “inhibition of the ET-1-induced decrease in blood flow” value in data set [1] is recorded as “inhibited”. Also, the acute toxicity result with mice (intravenous administration) and in the data set with mice (oral administration) was “very low” each time.
